Assay results published in article PMC4482062 (Nucleic Acids Research, 2015).
Several values for one entry are separate records, joined by “and”; a condition that tells them apart may be missing. Equal values may be shown once. Read-outs that look alike come from different tables or passages of the source.

Columns and labels:
[1] = set-up: method as in PMID 10858319; settings: in water; cited from earlier work
[2] = biological target: T1, CmoB (Escherichia coli, UniProt P76291); test: Time course of SAM-dependent mo5U modification ([14CH3]-SAM), competition with Cx-SAM; format: biochemical; settings: 10-μM Cx-SAM, 140 μM [14CH3]-SAM, 90 min
T1 construct: vector LIC-pET30a) (cleaved yes); made in house; host or cells: Escherichia coli BL21 (DE3)
Method: The assay was initiated by mixing 10-mM Tris (pH 8.0), 4-mM MgCl2, 140-μM [^14CH3]-SAM (Perkin Elmer), 100 μg of total tRNA prepared from cmoB-deficient cells and 2-μM CmoB in 50 μl. In competition assays to measure the effect of Cx-SAM on methylation, 10-μM Cx-SAM was added to the above mixture. […] RNA was washed with 0.2-M ammonium acetate (pH 6.0) using an MWCO 10-kDa filter by centrifugation. This washing step was repeated two more times to remove unreacted ^14C-SAM. RNA was then spotted on a DE81 filter (GE) and air-dried for 20 min. Images of the radioactive tRNA were recorded on a phosphorimaging plate (Molecular Dynamics) for 2 days and analyzed using a Molecular Dynamics Storm 860 PhosphorImager System with ImageQuant software.

[3] = biological target: T2, CmoB Y200A mutant (Escherichia coli, UniProt P76291, Y200A); test: Isothermal titration calorimetry, Y200A mutant CmoB; format: binding; settings: for K (binding constant): 15°C, single-site model; for ΔG°: ΔG° = −RT lnK
T2 construct: vector LIC-pET30a) (cleaved yes); made in house; host or cells: Escherichia coli BL21 (DE3)
T2 sequence (P76291 whole entry Y200A): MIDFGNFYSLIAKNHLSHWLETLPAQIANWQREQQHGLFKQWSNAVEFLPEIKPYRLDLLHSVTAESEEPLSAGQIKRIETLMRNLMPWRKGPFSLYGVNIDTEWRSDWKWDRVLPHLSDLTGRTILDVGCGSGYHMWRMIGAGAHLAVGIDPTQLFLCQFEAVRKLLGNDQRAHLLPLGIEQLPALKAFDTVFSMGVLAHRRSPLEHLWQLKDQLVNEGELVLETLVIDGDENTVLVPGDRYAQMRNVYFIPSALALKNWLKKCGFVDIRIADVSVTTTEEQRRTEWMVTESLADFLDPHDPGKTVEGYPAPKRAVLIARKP
Method: (§1) CmoB was extensively dialyzed for 24 h against binding buffer (20-mM HEPES, pH 7.5) using a dialysis cassette with 10-kDa MWCO (Pierce). Lyophilized Cx-SAM was dissolved in the binding buffer at a final concentration of 1.3 mM. SAM was purchased from Sigma and dissolved in binding buffer at a final concentration of 10 mM. Prior to use, all titration samples were centrifuged for 20 min at 4°C. Isothermal titration calorimetry (ITC) experiments were performed at 15°C using an auto-ITC200 (MicroCal, LLC, Northhampton, MA, USA) in which the reaction cell (202.8 μl) containing CmoB (50 μM and 370 μM for Cx-SAM and SAM, respectively) was titrated with 40 × 1-μl injections of 1.3-mM Cx-SAM or 6.7-mM SAM with an equilibration time of 180 s. Raw injection traces were integrated over time, normalized per mol of ligand injected and corrected for the heat of dilution obtained from the plateau of a titration curve. Titration data were analyzed using a single-site model in Origin (version X) and Igor Pro 5/6. […] Based on the chemical synthesis, the Cx-SAM utilized in the binding assay is a racemic mixture, of which only the S-isomer is capable of acting as a substrate/ligand for CmoB. Therefore, the stoichiometry was fixed at 1:1 and the activity of the ligand was introduced as a fitting parameter for Cx-SAM.

[4] = biological target: T3, wild-type CmoB (Escherichia coli, UniProt P76291); test: Isothermal titration calorimetry, wild-type CmoB; format: binding; settings: for K (binding constant): single-site model
T3 construct: vector LIC-pET30a) (cleaved yes); made in house; host or cells: Escherichia coli BL21 (DE3)
Method: as §1

[5] = biological target: T3, wild-type CmoB; test: In vitro LC-MS-based alkyl transfer assay, wild-type CmoB; format: biochemical
Method: (§2) The assay solution for SAM-dependent mo5U formation contained 10-mM Tris-HCl (pH 8.0), 4-mM MgCl2, 0.2-mM SAM and 20–25 μg (∼20 μM) of total tRNA prepared from cmoB-mutant E. coli cells in 50 μl. Reaction conditions for Cx-SAM-dependent cmo5U formation assay were identical, with the exception that10-μM Cx-SAM was used in place of SAM. Assays were initiated by addition of 0.1–2-μM CmoB to the above mixtures and subsequently incubated at the room temperature. The reaction was terminated by the addition of 0.1-mg/ml P1 nuclease, followed by incubation at 60°C for at least 1 h. […] Hydrolyzed nucleotides were directly applied to HPLC without further processing for LC-MS analysis as described above.

[6] = biological target: T4, CmoB R315A mutant (Escherichia coli, UniProt P76291, R315A); test: Isothermal titration calorimetry, R315A mutant CmoB; format: binding; settings: for K (binding constant) / ΔH°: ITC; for K (binding constant): 15°C, single-site model; for K (binding constant) / ΔH° / ΔG° / ΔS°: R315A; for ΔG°: ΔG° = −RT lnK; for ΔS°: ΔS° = (ΔH°−ΔG°)/T
T4 construct: vector LIC-pET30a) (cleaved yes); made in house; host or cells: Escherichia coli BL21 (DE3)
T4 sequence (P76291 whole entry R315A): as the sequence (P76291 whole entry Y200A) above, with A200Y, R315A counted along it
Method: as §1

[7] = biological target: T5, CmoB K91A mutant (Escherichia coli, UniProt P76291, K91A); test: In vitro LC-MS-based alkyl transfer assay, K91A CmoB; format: biochemical; settings: Cx-SAM as alkyl donor, after 24 h
T5 construct: vector LIC-pET30a) (cleaved yes); made in house; host or cells: Escherichia coli BL21 (DE3)
T5 sequence (P76291 whole entry K91A): as the sequence (P76291 whole entry Y200A) above, with K91A, A200Y counted along it
Method: as §2

[8] = biological target: T5, CmoB K91A mutant; test: Isothermal titration calorimetry, K91A mutant CmoB; format: binding; settings: for K (binding constant): single-site model; for ΔG°: ΔG° = −RT lnK; for ΔS°: ΔS° = (ΔH°−ΔG°)/T
Method: as §1
The titration curve was analyzed using macroscopic binding constants and enthalpies describing binding of n-molecules of Cx-SAM to tetrameric mutant CmoB. Initially, the titration curve was analyzed with all possible values of n (=1~4). […] Therefore, the titration curve was analyzed using three sets of binding constants and enthalpies (Supplementary Table 2). The fitted values of the macroscopic binding constants were compared to those expected for a case of non-cooperative binding. For both cooperative and non-cooperative binding, K1 is given by 4Ksite where 4 accounts for the number of ligand binding sites in teterameric CmoB (i.e., statistical factor) and Ksite describes the “intrinsic” affinity of each site. Then, Ksite=3.6x10^4 M^-1. The fitted value of K2 is ~ 8.4-fold higher than that calculated for the case of non-cooperative binding (6Ksite^2=7.7x10^9 M^-2), indicating positive cooperativity involved in binding of the second Cx-SAM. Since the population of K91A with three Cx-SAMs bound is negligible, binding of the third Cx-SAM is deduced to be negatively cooperative.
A possible molecular explanation for such heterogeneous cooperativity involved in the interaction between K91A and Cx-SAM is the presence of (at least) two different types of interface between the subunits in tetrameric K91A which is consistent with the structural model of the CmoB tetramer. In this model (Supplementary Figure 9), the four ligand binding sites are initially equivalent, but binding of the first ligand to any of these four sites differentially affects (increases and decreases) the affinities of the neighboring sites for the second ligand through the different subunit interfaces. This model is a variation of the classical “square” model used in the analysis of the interaction between hemoglobin and oxygen(2) and provides a molecular description of the fitted macroscopic binding constants in terms of the intrinsic affinity (Ksite) and two types of cooperativity (ω+ and ω-): K1=4Ksite; K2=2Ksite^2(1+ω++ω-); K4=Ksite^4(ω+ω-)^2. Then, Ksite=3.6x10^4 M^-1, ω+=23.8, and ω-=0.4. The value of ω is equivalent to a fold-change in the Cx-SAM affinity of a binding site in tetrameric K91A when its neighboring site is already occupied by Cx-SAM.
^aIn this model, the interaction is described by a set of binding events where n-molecules of Cx-SAM bind tetrameric CmoB (K91A) with the corresponding binding constants (Kn) and enthalpies (∆Hn°). Initially, the titration curve was analyzed by this model including all possible values of n (=1~4). […] Therefore, the titration curve was analyzed using three sets of binding constants and enthalpies.

[9] = biological target: the molecule itself; test: AUC; sedimentation velocity, g(s*) distribution fitted to a single-species model; with or without Cx-SAM or SAM

## O=c1[nH]c(=O)n([C@H]2C[C@H](O)[C@@H](CO)O2)cc1O [5-hydroxy-2′-deoxyuridine]
[1]
  pKa of the hydroxyl group on the pyrimidine ring: 7.68

## Nc1ncnc2c1ncn2[C@@H]1O[C@H](C[S+](CC[C@H](N)C(=O)[O-])CC(=O)O)[C@@H](O)[C@H]1O (stereo partly drawn) [Cx-SAM, carboxy-S-adenosine-L-methionine]
[2]
  Effect on [14CH3]-SAM methylation of tRNA (radioactive signal): no detectable radioactive signal
[3]
  Kd: 1.8 ± 0.3 µM
[3]; ITC, Y200A
  K (binding constant): 5.5 ± 0.8 × 10^5 M^−1 and 5.5 ± 0.8 x 10^5 M^−1
  ΔH°: -7.3 ± 0.1 kcal/mol
[3]; Y200A
  Specificity ratio K(Cx-SAM)/K(SAM): > 65
  ΔG°: -7.6 ± 0.1 kcal/mol
[3]; Y200A vs wild type
  Reduction of Cx-SAM binding affinity compared to the wild type: 4–5 fold
[3]; ΔS° = (ΔH°−ΔG°)/T, Y200A
  ΔS°: 0.8 ± 0.5 cal/mol/deg
[4]; ITC
  ΔH°: -7.9 ± 0.1 kcal/mol
[4]; ITC, 15°C, read-out: Kd
  Kd: 0.4 ± 0.03 µM
[4]; ITC, 15°C
  K (binding constant): 2.5 ± 0.2 × 10^6 M^−1 and 2.5 ± 0.2 x 10^6 M^−1
[4]; ITC, text
  TΔS°: 0.55 ± 0.06 kcal/mol
  ΔG°: -8.44 ± 0.03 kcal/mol
  ΔH°: -7.88 ± 0.05 kcal/mol
  ΔS°: 1.92 ± 0.21 cal·mol^−1·deg^−1
[4]; ΔG° = −RT lnK
  ΔG°: -8.4 ± 0.1 kcal/mol
[4]; ΔS° = (ΔH°−ΔG°)/T
  ΔS°: 1.9 ± 0.2 cal/mol/deg
[5]; 0.1-μM wild-type CmoB, 10-μM Cx-SAM, tRNA from cmoB-defective cells
  Time to detectable cmo5U formation: 9 min
[5]; 10-μM Cx-SAM and 2-mM SAM
  Time to detected cmo5U with both donors present: 20 min
[6]
  Kd: 2.1 ± 0.2 µM
  K (binding constant): 4.7 ± 0.3 × 10^5 M^−1 and 4.7 ± 0.3 x 10^5 M^−1
  ΔH°: -8.5 ± 0.1 kcal/mol
  ΔG°: -7.5 ± 0.1 kcal/mol
  ΔS°: −3.5 ± 0.3 cal/mol/deg
[6]; R315A vs wild type
  Reduction of Cx-SAM binding affinity compared to the wild type: 4–5 fold
[7]
  cmo5U formation: No significant cmo5U signal was detected
[8]; ITC, 15°C, K91A
  K (binding constant): 9.0 ± 1.8 × 10^3 M^−1 and 9.0 ± 1.8 x 10^3 M^−1
[8]; ITC, K91A
  ΔH°: -16.5 ± 1.6 kcal/mol
[8]; K1 (macroscopic binding constant), tetrameric K91A, 1 ligand bound
  Kd: 7.14 µM
[8]; K1=4Ksite, tetrameric K91A
  Ksite (intrinsic affinity of each site): 36000 M⁻¹
[8]; Kd, ITC, 15°C, K91A
  Kd: 111 µM and 110 µM
[8]; square model, tetrameric K91A
  ω+ (positive cooperativity factor): 23.8
  ω- (negative cooperativity factor): 0.4
[8]; tetrameric K91A, 2 ligands bound
  K2 (macroscopic binding constant): 6.5 (± 1.4) x 10^10 M^-2
[8]; tetrameric K91A, 4 ligands bound
  K4 (macroscopic binding constant): 1.6 (± 0.5) x 10^20 M^-4
[8]; vs 6Ksite^2
  Fitted K2 relative to non-cooperative binding: ~ 8.4 fold
[8]; vs Ksite^4
  Fitted K4 relative to non-cooperative binding: ~ 98.5 fold
[8]; K91A
  ΔG°: -5.2 ± 0.1 kcal/mol
  ΔS°: −39.3 ± 5.4 cal/mol/deg

## C[S+](CC[C@H](N)C(=O)[O-])C[C@H]1O[C@@H](n2cnc3c(N)ncnc32)[C@H](O)[C@@H]1O (stereo partly drawn) [SAM, reference compound]
[3]
  Kd: > 119 µM
[3]; ITC, Y200A
  K (binding constant): N.D.^e (< 8.4 × 10^3) M^−1
[3]; Y200A
  ΔG°: >-5.1 kcal/mol
[4]; ITC
  ΔH°: -0.6 ± 0.1 kcal/mol
[4]; ITC, 15°C
  K (binding constant): 4.8 ± 2.0 × 10^3 M^−1 and 4.8 ± 2.0 x 10^3 M^−1
[4]; ITC, text
  TΔS°: 4.23 ± 0.27 kcal/mol
  ΔG°: -4.85 ± 0.24 kcal/mol
  ΔH°: -0.62 ± 0.12 kcal/mol
  ΔS°: 14.7 ± 0.9 cal·mol^−1·deg^−1
[4]; Kd, ITC
  Kd: 210 ± 90 µM
[4]; Kd, ITC, 15°C
  Kd: 200 µM and 208 µM
[4]; ΔG° = −RT lnK
  ΔG°: -4.9 ± 0.2 kcal/mol
[4]; ΔS° = (ΔH°−ΔG°)/T
  ΔS°: 14.7 ± 0.9 cal/mol/deg
[5]; 2-μM wild-type CmoB, 0.2-mM SAM as alkyl donor
  Time to observed mo5U formation: 5 h
[5]; 10-μM Cx-SAM and 2-mM SAM
  Time to detected trace mo5U with both donors present: 2 h
[6]
  Kd: 140 ± 7.3 µM
  K (binding constant): 7.1 ± 0.4 x 10^3 M^−1
  ΔH°: -11.1 ± 0.2 kcal/mol
  ΔG°: -5.1 ± 0.1 kcal/mol
  ΔS°: −21.0 ± 0.8 cal/mol/deg
[8]; ITC, 15°C, K91A
  K (binding constant): 9.1 ± 0.2 × 10^4 M^−1 and 9.1 ± 0.2 x 10^4 M^−1
[8]; ITC, K91A
  ΔH°: -6.4 ± 0.1 kcal/mol
[8]; Kd, ITC, 15°C, K91A
  Kd: 11 ± 0.2 µM
[8]; K91A
  ΔG°: -6.5 ± 0.1 kcal/mol
  ΔS°: 0.4 ± 0.1 cal/mol/deg

B1: CmoB carboxymethyl transferase (enzyme, Escherichia coli (BL21 genomic DNA))
chain: MIDFGNFYSLIAKNHLSHWLETLPAQIANWQREQQHGLFKQWSNAVEFLPEIKPYRLDLLHSVTAESEEPLSAGQIKRIETLMRNLMPWRKGPFSLYGVNIDTEWRSDWKWDRVLPHLSDLTGRTILDVGCGSGYHMWRMIGAGAHLAVGIDPTQLFLCQFEAVRKLLGNDQRAHLLPLGIEQLPALKAFDTVFSMGVLYHRRSPLEHLWQLKDQLVNEGELVLETLVIDGDENTVLVPGDRYAQMRNVYFIPSALALKNWLKKCGFVDIRIADVSVTTTEEQRRTEWMVTESLADFLDPHDPGKTVEGYPAPKRAVLIARKP
notes: CmoB of Escherichia coli, cmoB gene amplified from genomic DNA of E. coli BL21 and cloned into LIC-pET30a; calculated monomer mass 37.01 kD; 319-323 C-alphas aligned per protomer in the structures; A selenomethionine-substituted form (made in E. coli B834, purified the same way) gave the experimental phases; also called wild-type CmoB; source: E. coli BL21 (DE3), purified (Ni-agarose, thrombin …)
[9]
  stoichiometry N: 4
